Source: US20240398784A1, “C-LINKED ISOQUINOLINE AMIDES AS LRRK2 INHIBITORS, PHARMACEUTICAL COMPOSITIONS, AND USES THEREOF” (Merck Sharp & Dohme LLC, priority 2021, published 2024)

Target: LRRK2 G2019S (Homo sapiens, UniProt Q5S007, G2019S)
Assay: LRRK2 G2019S Km ATP LanthaScreen assay
Format: biochemical
Settings: read-out: LRRK2 pIC50 (converted)

LRRK2 G2019S, sequence (Q5S007 whole entry G2019S): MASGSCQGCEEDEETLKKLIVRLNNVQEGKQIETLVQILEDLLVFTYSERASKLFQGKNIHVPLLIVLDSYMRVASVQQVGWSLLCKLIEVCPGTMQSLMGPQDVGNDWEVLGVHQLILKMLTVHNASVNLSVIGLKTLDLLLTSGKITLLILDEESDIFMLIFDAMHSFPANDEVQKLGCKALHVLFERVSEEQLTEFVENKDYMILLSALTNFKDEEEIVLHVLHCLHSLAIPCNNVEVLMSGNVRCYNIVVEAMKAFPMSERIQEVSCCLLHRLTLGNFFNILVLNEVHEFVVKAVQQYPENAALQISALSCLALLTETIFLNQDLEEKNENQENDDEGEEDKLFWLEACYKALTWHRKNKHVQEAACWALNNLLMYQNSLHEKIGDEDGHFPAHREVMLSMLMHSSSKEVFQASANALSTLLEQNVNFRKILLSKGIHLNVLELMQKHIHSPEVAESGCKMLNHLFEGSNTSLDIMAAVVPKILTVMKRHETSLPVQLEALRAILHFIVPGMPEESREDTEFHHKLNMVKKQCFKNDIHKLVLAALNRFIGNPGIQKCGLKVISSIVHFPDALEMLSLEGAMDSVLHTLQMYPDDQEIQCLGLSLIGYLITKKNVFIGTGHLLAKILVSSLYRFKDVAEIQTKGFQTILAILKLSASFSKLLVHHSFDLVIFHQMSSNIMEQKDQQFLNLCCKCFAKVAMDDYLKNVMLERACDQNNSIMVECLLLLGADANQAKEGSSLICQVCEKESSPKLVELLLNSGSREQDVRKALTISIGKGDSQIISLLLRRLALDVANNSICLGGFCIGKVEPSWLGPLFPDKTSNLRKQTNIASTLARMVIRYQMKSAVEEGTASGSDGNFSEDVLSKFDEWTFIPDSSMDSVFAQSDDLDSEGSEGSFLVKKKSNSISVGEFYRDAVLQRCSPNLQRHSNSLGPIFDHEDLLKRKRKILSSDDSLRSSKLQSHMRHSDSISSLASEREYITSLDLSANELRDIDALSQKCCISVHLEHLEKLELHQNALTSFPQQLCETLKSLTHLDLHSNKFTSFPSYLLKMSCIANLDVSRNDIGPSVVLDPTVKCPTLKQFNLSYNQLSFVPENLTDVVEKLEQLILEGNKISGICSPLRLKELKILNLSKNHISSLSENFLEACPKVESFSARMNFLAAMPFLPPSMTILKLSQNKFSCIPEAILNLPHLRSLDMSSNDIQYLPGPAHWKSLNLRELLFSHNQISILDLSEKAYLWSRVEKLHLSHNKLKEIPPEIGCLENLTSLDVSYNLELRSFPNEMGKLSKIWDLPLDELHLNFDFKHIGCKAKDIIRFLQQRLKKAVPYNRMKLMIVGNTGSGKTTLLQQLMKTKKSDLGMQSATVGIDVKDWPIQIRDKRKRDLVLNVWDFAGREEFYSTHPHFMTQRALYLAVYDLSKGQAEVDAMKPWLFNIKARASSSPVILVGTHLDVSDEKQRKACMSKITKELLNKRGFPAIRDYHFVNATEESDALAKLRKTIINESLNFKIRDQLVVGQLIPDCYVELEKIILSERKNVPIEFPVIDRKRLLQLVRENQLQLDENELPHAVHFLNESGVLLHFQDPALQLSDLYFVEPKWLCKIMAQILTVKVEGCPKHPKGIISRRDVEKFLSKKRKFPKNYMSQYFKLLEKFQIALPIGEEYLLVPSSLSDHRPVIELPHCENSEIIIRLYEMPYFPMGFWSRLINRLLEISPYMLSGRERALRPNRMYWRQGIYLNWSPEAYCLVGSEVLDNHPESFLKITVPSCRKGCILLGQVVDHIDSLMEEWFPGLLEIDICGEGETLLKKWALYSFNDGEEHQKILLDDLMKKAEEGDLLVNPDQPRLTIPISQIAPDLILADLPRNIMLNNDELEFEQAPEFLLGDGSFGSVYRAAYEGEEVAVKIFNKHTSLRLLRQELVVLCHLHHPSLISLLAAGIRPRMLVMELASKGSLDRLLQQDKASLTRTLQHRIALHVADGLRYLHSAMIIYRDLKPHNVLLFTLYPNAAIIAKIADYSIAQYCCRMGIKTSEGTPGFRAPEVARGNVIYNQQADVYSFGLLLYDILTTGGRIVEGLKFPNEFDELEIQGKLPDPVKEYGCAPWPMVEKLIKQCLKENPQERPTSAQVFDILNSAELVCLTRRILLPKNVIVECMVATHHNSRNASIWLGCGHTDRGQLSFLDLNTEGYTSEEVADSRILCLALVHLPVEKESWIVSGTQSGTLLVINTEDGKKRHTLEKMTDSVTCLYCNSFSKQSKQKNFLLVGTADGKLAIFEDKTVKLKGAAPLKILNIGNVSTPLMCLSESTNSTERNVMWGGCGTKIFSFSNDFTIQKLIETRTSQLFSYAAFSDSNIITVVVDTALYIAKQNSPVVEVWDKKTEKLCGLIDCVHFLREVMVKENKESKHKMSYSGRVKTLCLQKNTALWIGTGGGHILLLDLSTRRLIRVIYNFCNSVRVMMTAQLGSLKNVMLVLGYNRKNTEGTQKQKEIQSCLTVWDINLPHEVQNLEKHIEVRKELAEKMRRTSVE

SMILES | IC50
COCC(C)c1cc2cc(NC(=O)C3CC34CCOCC4)ncc2cc1Cl (single isomer, unassigned) [Ex-9.12, N-(7-chloro-6-(1-methoxypropan-2-yl)isoquinolin-3-yl)-6-oxaspiro[2.5]octane-1-carboxamide] | 35.5 nM
CCC1C(C(=O)Nc2cc3cc(C(C)COC)c(Cl)cc3cn2)C1c1cnn(C)c1 (single isomer, unassigned) [Ex-9.13, N-(7-chloro-6-(1-methoxypropan-2-yl)isoquinolin-3-yl)-2-ethyl-3-(1-methyl-1H-pyrazol-4-yl)cyclopropane-1-carboxamide] | 6.92 nM
CCC1C(C(=O)Nc2cc3cc(C(C)COC)c(Cl)cc3cn2)C1c1cnn(C)c1 (single isomer, unassigned) [Ex-9.14, N-(7-chloro-6-(1-methoxypropan-2-yl)isoquinolin-3-yl)-2-ethyl-3-(1-methyl-1H-pyrazol-4-yl)cyclopropane-1-carboxamide] | 1.17 nM
CCC1C(C(=O)Nc2cc3cc(C(C)CC#N)c(Cl)cc3cn2)C1c1cnn(C)c1 (single isomer, unassigned) [Ex-9.15, N-(7-chloro-6-(1-cyanopropan-2-yl)isoquinolin-3-yl)-2-ethyl-3-(1-methyl-1H-pyrazol-4-yl)cyclopropane-1-carboxamide] | 0.427 nM
CCC1C(C(=O)Nc2cc3cc(C(C)CC#N)c(Cl)cc3cn2)C1c1cnn(C)c1 (single isomer, unassigned) [Ex-9.16, N-(7-chloro-6-(1-cyanopropan-2-yl)isoquinolin-3-yl)-2-ethyl-3-(1-methyl-1H-pyrazol-4-yl)cyclopropane-1-carboxamide] | 1.82 nM
COCC(C)c1cc2cc(NC(=O)C3CC3c3ccccn3)ncc2cc1Cl (single isomer, unassigned) [Ex-9.19, N-(7-chloro-6-(1-methoxypropan-2-yl)isoquinolin-3-yl)-2-(pyridin-2-yl)cyclopropane-1-carboxamide] | 11 nM
COCC(C)c1cc2cc(NC(=O)C3CC3c3ccccn3)ncc2cc1Cl (single isomer, unassigned) [Ex-9.20, N-(7-chloro-6-(1-methoxypropan-2-yl)isoquinolin-3-yl)-2-(pyridin-2-yl)cyclopropane-1-carboxamide] | 29.5 nM
CC(CC#N)c1cc2cc(NC(=O)C3CC3c3ccccn3)ncc2cc1Cl (single isomer, unassigned) [Ex-9.21, N-(7-chloro-6-(1-cyanopropan-2-yl)isoquinolin-3-yl)-2-(pyridin-2-yl)cyclopropane-1-carboxamide] | 26.3 nM
CC(CC#N)c1cc2cc(NC(=O)C3CC3c3ccccn3)ncc2cc1Cl (single isomer, unassigned) [Ex-9.22, N-(7-chloro-6-(1-cyanopropan-2-yl)isoquinolin-3-yl)-2-(pyridin-2-yl)cyclopropane-1-carboxamide] | 129 nM
O=C(Nc1cc2cc(C3C4CCOCC43)c(Cl)cc2cn1)C1CC12CCOCC2 (single isomer, unassigned) [Ex-9.23, N-(6-(3-oxabicyclo[4.1.0]heptan-7-yl)-7-chloroisoquinolin-3-yl)-6-oxaspiro[2.5]octane-1-carboxamide] | 19.1 nM
O=C(Nc1cc2cc(C3C4CCOCC43)c(Cl)cc2cn1)C1CC12CCOCC2 (single isomer, unassigned) [Ex-9.24, N-(6-(3-oxabicyclo[4.1.0]heptan-7-yl)-7-chloroisoquinolin-3-yl)-6-oxaspiro[2.5]octane-1-carboxamide] | 6.61 nM
COC1CCC(C(=O)Nc2cc3cc(C4CCN(C5(C)COCC5O)CC4)c(Cl)cc3cn2)CC1 (single isomer, unassigned) [Ex-10.1, 1,4-trans, (3R,4R)- or 1,4-trans, (3S,4S)- or 1,4-cis, (3R,4R)- or 1,4-cis, (3S,4S)-N-(7-chloro-6-(1-(4-hydroxy-3-methyltetrahydrofuran-3-yl)piperidin-4-yl)isoquinolin-3-yl)-4-methoxycyclohexane-1-carboxamide] | 10.5 nM
COC1CCC(C(=O)Nc2cc3cc(C4CCN(C5(C)COCC5O)CC4)c(Cl)cc3cn2)CC1 (single isomer, unassigned) [Ex-10.2, 1,4-trans, (3R,4R)- or 1,4-trans, (3S,4S)- or 1,4-cis, (3R,4R)- or 1,4-cis, (3S,4S)-N-(7-chloro-6-(1-(4-hydroxy-3-methyltetrahydrofuran-3-yl)piperidin-4-yl)isoquinolin-3-yl)-4-methoxycyclohexane-1-carboxamide] | 46.8 nM
CC1C(C(=O)Nc2cc3cc(C4CCN(C5(C)COCC5O)CC4)c(Cl)cc3cn2)C12CCOCC2 (single isomer, unassigned) [Ex-10.5, N-(7-chloro-6-(1-(4-hydroxy-3-methyltetrahydrofuran-3-yl)piperidin-4-yl)isoquinolin-3-yl)-2-methyl-6-oxaspiro[2.5]octane-1-carboxamide] | 61.7 nM
CC1C(C(=O)Nc2cc3cc(C4CCN(C5(C)COCC5O)CC4)c(Cl)cc3cn2)C12CCOCC2 (single isomer, unassigned) [Ex-10.6, N-(7-chloro-6-(1-(4-hydroxy-3-methyltetrahydrofuran-3-yl)piperidin-4-yl)isoquinolin-3-yl)-2-methyl-6-oxaspiro[2.5]octane-1-carboxamide] | 11 nM
CC1C(C(=O)Nc2cc3cc(C4CCN(C5(C)COCC5O)CC4)c(Cl)cc3cn2)C12CCOCC2 (single isomer, unassigned) [Ex-10.7, N-(7-chloro-6-(1-(4-hydroxy-3-methyltetrahydrofuran-3-yl)piperidin-4-yl)isoquinolin-3-yl)-2-methyl-6-oxaspiro[2.5]octane-1-carboxamide] | 44.7 nM
CC1C(C(=O)Nc2cc3cc(C4CCN(C5(C)COCC5O)CC4)c(Cl)cc3cn2)C12CCOCC2 (single isomer, unassigned) [Ex-10.8, N-(7-chloro-6-(1-(4-hydroxy-3-methyltetrahydrofuran-3-yl)piperidin-4-yl)isoquinolin-3-yl)-2-methyl-6-oxaspiro[2.5]octane-1-carboxamide] | 145 nM
CC1(N2CCC(c3cc4cc(NC(=O)C5CC5C(F)F)ncc4cc3Cl)CC2)COCC1O (single isomer, unassigned) [Ex-10.9, N-(7-chloro-6-(1-(4-hydroxy-3-methyltetrahydrofuran-3-yl)piperidin-4-yl)isoquinolin-3-yl)-2-(difluoromethyl)cyclopropane-1-carboxamide] | 7.24 nM
CC1(N2CCC(c3cc4cc(NC(=O)C5CC5C(F)F)ncc4cc3Cl)CC2)COCC1O (single isomer, unassigned) [Ex-10.10, N-(7-chloro-6-(1-(4-hydroxy-3-methyltetrahydrofuran-3-yl)piperidin-4-yl)isoquinolin-3-yl)-2-(difluoromethyl)cyclopropane-1-carboxamide] | 15.5 nM
CCC1C(C(=O)Nc2cc3cc(C4CCC(N5CC(C)(F)C5)CC4)c(Cl)cc3cn2)C1c1cnn(C)c1 (single isomer, unassigned) [Ex-11.1, (1R,2R,3R) or (1R,2S,3R) or (1S,2R,3S) or (1S,2S,3S)-N-(7-chloro-6-((cis or trans)-4-(3-fluoro-3-methylazetidin-1-yl)cyclohexyl)isoquinolin-3-yl)-2-ethyl-3-(1-methyl-1H-pyrazol-4-yl)cyclopropane-1-carboxamide] | 0.0813 nM
CCC1C(C(=O)Nc2cc3cc(C4CCC(N5CC(C)(F)C5)CC4)c(Cl)cc3cn2)C1c1cnn(C)c1 (single isomer, unassigned) [Ex-11.2, (1R,2R,3R) or (1R,2S,3R) or (1S,2R,3S) or (1S,2S,3S)-N-(7-chloro-6-((cis or trans)-4-(3-fluoro-3-methylazetidin-1-yl)cyclohexyl)isoquinolin-3-yl)-2-ethyl-3-(1-methyl-1H-pyrazol-4-yl)cyclopropane-1-carboxamide] | 9.12 nM
COC1CN(C2CCC(c3cc4cc(NC(=O)C5CC56CCOCC6)ncc4cc3Cl)CC2)C1 (single isomer, unassigned) [Ex-11.3, N-(7-chloro-6-(4-(3-methoxyazetidin-1-yl)cyclohexyl)isoquinolin-3-yl)-6-oxaspiro[2.5]octane-1-carboxamide] | 0.0813 nM
COC1CN(C2CCC(c3cc4cc(NC(=O)C5CC56CCOCC6)ncc4cc3Cl)CC2)C1 (single isomer, unassigned) [Ex-11.4, N-(7-chloro-6-(4-(3-methoxyazetidin-1-yl)cyclohexyl)isoquinolin-3-yl)-6-oxaspiro[2.5]octane-1-carboxamide] | 1.7 nM
O=C(Nc1cc2cc(C3CCC(N4CC(F)C4)CC3)c(Cl)cc2cn1)C1CC12CCOCC2 (single isomer, unassigned) [Ex-11.5, N-(7-chloro-6-(4-(3-fluoroazetidin-1-yl)cyclohexyl)isoquinolin-3-yl)-6-oxaspiro[2.5]octane-1-carboxamide] | 186 nM
O=C(Nc1cc2cc(C3CCC(N4CC(F)C4)CC3)c(Cl)cc2cn1)C1CC12CCOCC2 (single isomer, unassigned) [Ex-11.6, N-(7-chloro-6-(4-(3-fluoroazetidin-1-yl)cyclohexyl)isoquinolin-3-yl)-6-oxaspiro[2.5]octane-1-carboxamide] | 3.8 nM
CCC1C(C(=O)Nc2cc3cc(C4CCC(N5CC(F)C5)CC4)c(Cl)cc3cn2)C1c1cnn(C)c1 (single isomer, unassigned) [Ex-11.7, N-(7-chloro-6-(4-(3-fluoroazetidin-1-yl)cyclohexyl)isoquinolin-3-yl)-2-ethyl-3-(1-methyl-1H-pyrazol-4-yl)cyclopropane-1-carboxamide] | 0.282 nM
CCC1C(C(=O)Nc2cc3cc(C4CCC(N5CC(F)C5)CC4)c(Cl)cc3cn2)C1c1cnn(C)c1 (single isomer, unassigned) [Ex-11.8, N-(7-chloro-6-(4-(3-fluoroazetidin-1-yl)cyclohexyl)isoquinolin-3-yl)-2-ethyl-3-(1-methyl-1H-pyrazol-4-yl)cyclopropane-1-carboxamide] | 0.0813 nM
CC1(N2CCC(c3cc4cc(NC(=O)C5CC56CCOCC6)ncc4cc3Cl)CC2)CCOCC1F (single isomer, unassigned) [Ex-12.1, N-(7-chloro-6-(1-((3R,4R or 3S,4S)-3-fluoro-4-methyltetrahydro-2H-pyran-4-yl)piperidin-4-yl)isoquinolin-3-yl)-6-oxaspiro[2.5]octane-1-carboxamide] | 41.7 nM
